Results reported in ChEMBL document CHEMBL1146362, “Organoiodine(III) mediated synthesis of 3,9-diaryl- and 3,9-difuryl-bis-1,2,4-triazolo[4,3-a][4,3-c]pyrimidines as antibacterial agents” (2007).
In brackets after ≈: the same amount, converted by molar mass. Activity calls are given as the source filed them. The calls are words filed in the database; no cut-off is given here.

Legend:
[1] = system: Salmonella typhi; assay: Antibacterial activity against Salmonella typhi MTCC 733 after 24 hrs by agar dilution assay; format: functional, Salmonella enterica subsp. enterica serovar Typhi; conditions: Salmonella enterica, MTCC 733, 24 h
[2] = system: Staphylococcus aureus; assay: Antibacterial activity against Staphylococcus aureus MTCC 3160 after 24 hrs by agar diffusion assay; format: functional
[3] = system: Escherichia coli; assay: Antibacterial activity against Escherichia coli MTCC 51 after 24 hrs by agar dilution assay; format: functional; conditions: MTCC 51, 24 h
[4] = system: Staphylococcus aureus; assay: Antibacterial activity against Staphylococcus aureus MTCC 3160 after 24 hrs by agar dilution assay; format: functional; conditions: MTCC 3160, 24 h
[5] = system: Bacillus subtilis; assay: Antibacterial activity against Bacillus subtilis MTCC 121 after 24 hrs by agar diffusion assay; format: functional
[6] = system: Staphylococcus epidermidis; assay: Antibacterial activity against Staphylococcus epidermidis MTCC 2639 after 24 hrs by agar diffusion assay; format: functional
[7] = system: Escherichia coli; assay: Antibacterial activity against Escherichia coli MTCC 51 after 24 hrs by agar diffusion assay; format: functional
[8] = system: Salmonella typhi; assay: Antibacterial activity against Salmonella typhi MTCC 733 after 24 hrs by agar diffusion assay; format: functional, Salmonella enterica subsp. enterica serovar Typhi
[9] = system: Bacillus subtilis; assay: Antibacterial activity against Bacillus subtilis MTCC 121 after 24 hrs by agar dilution assay; format: functional; conditions: MTCC 121, 24 h
[10] = system: Staphylococcus epidermidis; assay: Antibacterial activity against Staphylococcus epidermidis MTCC 2639 after 24 hrs by agar dilution assay; format: functional; conditions: MTCC 2639, 24 h

How did the MIC [1] turn out when c1coc(-c2nnc3n2ccc2nnc(-c4ccco4)n23)c1 was run?
Its MIC is 64 µg/mL (≈ 219 µM).

What about the “inhibition zone (IZ)” value [2] of the same compound?
Its value is 40 mm.

What about the MIC [3] of the same compound?
Its MIC is 64 µg/mL (≈ 219 µM).

And the MIC [4]?
The MIC was 0.5 µg/mL (≈ 1.71 µM).

What about the “inhibition zone (IZ)” value [5] of the same compound?
The value was 20 mm.

What about the “inhibition zone (IZ)” value [6] of the same compound?
Its value is 10 mm.

What about the “inhibition zone (IZ)” value [7] of the same compound?
The value was 10 mm.

What about the “inhibition zone (IZ)” value [8] of the same compound?
Its value is 10 mm.

What about the MIC [9] of the same compound?
The MIC was 8 µg/mL (≈ 27.4 µM).

What about the MIC [10] of the same compound?
The MIC was 64 µg/mL (≈ 219 µM).

For O=[N+]([O-])c1ccc(-c2nnc3n2ccc2nnc(-c4ccc([N+](=O)[O-])o4)n23)o1, which MIC [1] is on record?
Its MIC is 1 µg/mL (≈ 2.62 µM).

And the “inhibition zone (IZ)” value [2]?
The value was 20.83 mm.

What about the MIC [3] of the same compound?
Its MIC is 2 µg/mL (≈ 5.23 µM).

What about the MIC [4] of the same compound?
Its MIC is 8 µg/mL (≈ 20.9 µM).

And the “inhibition zone (IZ)” value [5]?
The value was 40 mm.

What about the “inhibition zone (IZ)” value [6] of the same compound?
The value was 35 mm.

What about the “inhibition zone (IZ)” value [7] of the same compound?
The value was 30 mm.

What about the “inhibition zone (IZ)” value [8] of the same compound?
The value was 35.16 mm.

What about the MIC [9] of the same compound?
Its MIC is 0.5 µg/mL (≈ 1.31 µM).

And the MIC [10]?
Its MIC is 1 µg/mL (≈ 2.62 µM).

For N[C@@H](C(=O)N[C@@H]1C(=O)N2C(C(=O)O)=C(Cl)CS[C@H]12)c1ccccc1 [CEFACLOR ANHYDROUS], which MIC [1] is on record?
The MIC was 2 µg/mL (≈ 5.44 µM).

And the MIC [3]?
Its MIC is 4 µg/mL (≈ 10.9 µM).

And the MIC [4]?
The MIC was 4 µg/mL (≈ 10.9 µM).

What about the MIC [9] of the same compound?
The MIC was 8 µg/mL (≈ 21.8 µM).

What about the MIC [10] of the same compound?
The MIC was 4 µg/mL (≈ 10.9 µM).

Which MIC [1] does the source give for Fc1ccc(-c2nnc3n2ccc2nnc(-c4ccc(F)cc4)n23)cc1 here?
Its MIC is 64 µg/mL (≈ 184 µM).

What about the “inhibition zone (IZ)” value [2] of the same compound?
The value was 24.83 mm.

And the MIC [3]?
The MIC was 4 µg/mL (≈ 11.5 µM).

And the MIC [4]?
Its MIC is 4 µg/mL (≈ 11.5 µM).

What about the “inhibition zone (IZ)” value [5] of the same compound?
The value was 25 mm.

What about the “inhibition zone (IZ)” value [6] of the same compound?
Its value is 25 mm.

What about the Activity [7] of the same compound?
Its Activity is “inactive”.

What about the “inhibition zone (IZ)” value [8] of the same compound?
The value was 10 mm.

And the MIC [9]?
Its MIC is 2 µg/mL (≈ 5.74 µM).

What about the MIC [10] of the same compound?
The MIC was 4 µg/mL (≈ 11.5 µM).

How did the MIC [1] turn out when COc1ccc(-c2nnc3n2ccc2nnc(-c4ccc(OC)cc4)n23)cc1 was run?
Its MIC is 64 µg/mL (≈ 172 µM).

And the “inhibition zone (IZ)” value [2]?
The value was 10.83 mm.

What about the MIC [3] of the same compound?
Its MIC is > 64 µg/mL.

And the MIC [4]?
The MIC was 64 µg/mL (≈ 172 µM).

What about the “inhibition zone (IZ)” value [5] of the same compound?
The value was 10 mm.

What about the Activity [6] of the same compound?
Its Activity is “inactive”.

And the Activity [7]?
Its Activity is “inactive”.

And the “inhibition zone (IZ)” value [8]?
Its value is 10 mm.

What about the MIC [9] of the same compound?
The MIC was 64 µg/mL (≈ 172 µM).

And the MIC [10]?
Its MIC is > 64 µg/mL.

How did the MIC [1] turn out when CC(=O)NC[C@H]1CN(c2ccc(N3CCOCC3)c(F)c2)C(=O)O1 [LINEZOLID] was run?
Its MIC is 2 µg/mL (≈ 5.93 µM).

And the MIC [3]?
The MIC was 8 µg/mL (≈ 23.7 µM).

And the MIC [9]?
Its MIC is 2 µg/mL (≈ 5.93 µM).

What about the MIC [10] of the same compound?
The MIC was 8 µg/mL (≈ 23.7 µM).

What does the source list for Clc1ccc(-c2nnc3n2ccc2nnc(-c4ccc(Cl)cc4)n23)cc1?
MIC [1]: 8 µg/mL (≈ 21 µM); inhibition zone (IZ) [2]: 15 mm; MIC [3]: > 64 µg/mL; MIC [4]: 32 µg/mL (≈ 83.9 µM); inhibition zone (IZ) [5]: 20 mm; Activity [6]: inactive; Activity [7]: inactive; inhibition zone (IZ) [8]: 20 mm; MIC [9]: 8 µg/mL (≈ 21 µM); MIC [10]: > 64 µg/mL

Which MIC [1] does the source give for O=[N+]([O-])c1ccc(-c2nnc3n2ccc2nnc(-c4ccc([N+](=O)[O-])cc4)n23)cc1 here?
The MIC was 1 µg/mL (≈ 2.49 µM).

And the “inhibition zone (IZ)” value [2]?
The value was 30 mm.

And the MIC [3]?
Its MIC is 2 µg/mL (≈ 4.97 µM).

And the MIC [4]?
Its MIC is 1 µg/mL (≈ 2.49 µM).

And the “inhibition zone (IZ)” value [5]?
Its value is 30 mm.

And the “inhibition zone (IZ)” value [6]?
Its value is 25.16 mm.

And the “inhibition zone (IZ)” value [7]?
The value was 25 mm.

And the “inhibition zone (IZ)” value [8]?
The value was 30 mm.

And the MIC [9]?
Its MIC is 1 µg/mL (≈ 2.49 µM).

And the MIC [10]?
Its MIC is 2 µg/mL (≈ 4.97 µM).

How did the MIC [1] turn out when Brc1ccc(-c2nnc3n2ccc2nnc(-c4ccc(Br)cc4)n23)cc1 was run?
The MIC was 32 µg/mL (≈ 68.1 µM).

What about the Activity [2] of the same compound?
The Activity was “inactive”.

What about the MIC [3] of the same compound?
Its MIC is > 64 µg/mL.

And the MIC [4]?
Its MIC is > 64 µg/mL.

What about the Activity [5] of the same compound?
Its Activity is “inactive”.

What about the Activity [6] of the same compound?
The Activity was “inactive”.

And the Activity [7]?
Its Activity is “inactive”.

What about the “inhibition zone (IZ)” value [8] of the same compound?
Its value is 15 mm.

And the MIC [9]?
Its MIC is > 64 µg/mL.

And the MIC [10]?
The MIC was > 64 µg/mL.

For COc1ccc(OC)c(-c2nnc3n2ccc2nnc(-c4cc(OC)ccc4OC)n23)c1, which MIC [1] is on record?
Its MIC is 8 µg/mL (≈ 18.5 µM).

And the “inhibition zone (IZ)” value [2]?
The value was 20.16 mm.

What about the MIC [3] of the same compound?
The MIC was > 64 µg/mL.

And the MIC [4]?
Its MIC is 8 µg/mL (≈ 18.5 µM).

And the “inhibition zone (IZ)” value [5]?
Its value is 15.16 mm.

And the “inhibition zone (IZ)” value [6]?
Its value is 20 mm.

And the Activity [7]?
Its Activity is “inactive”.

And the “inhibition zone (IZ)” value [8]?
Its value is 20 mm.

What about the MIC [9] of the same compound?
Its MIC is 32 µg/mL (≈ 74 µM).

What about the MIC [10] of the same compound?
The MIC was 8 µg/mL (≈ 18.5 µM).

Which results are given for Cc1ccc(-c2nnc3n2ccc2nnc(-c4ccc(C)cc4)n23)cc1?
MIC [1]: > 64 µg/mL; Activity [2]: inactive; MIC [3]: > 64 µg/mL; MIC [4]: > 64 µg/mL; inhibition zone (IZ) [5]: 20.83 mm; Activity [6]: inactive; Activity [7]: inactive; Activity ([8]; Salmonella enterica subsp. enterica serovar Typhi): inactive; MIC [9]: 8 µg/mL (≈ 23.5 µM); MIC [10]: > 64 µg/mL
